# Assay results from ChEMBL document CHEMBL1155952, “4-Amino-6-arylamino-pyrimidine-5-carbaldehyde hydrazones as potent ErbB-2/EGFR dual kinase inhibitors” (Bioorg Med Chem Lett, 2008).
# What was measured:
# [1] = biological target: T1, Receptor tyrosine-protein kinase erbB-2 (Homo sapiens, UniProt P04626); test: Inhibition of human ErbB2
# [2] = biological target: Epidermal growth factor receptor (Homo sapiens, UniProt P00533); test: Inhibition of human EGFR expressed in SF9 cells
# [3] = biological target: T1, Receptor tyrosine-protein kinase erbB-2; test: Inhibition of human ErB2 phosphorylation in human SKBR3 cells; type: cell-based, SK-BR-3
# [4] = biological target: Tyrosine-protein kinase Lck (Homo sapiens) (UniProt P06239); test: Inhibition of LCK at 3 uM
# [5] = test system: NCI-N87; test: Antiproliferative activity against human N87 cells overexpressing ErB2; type: functional, cell-based
# [6] = biological target: RAF proto-oncogene serine/threonine-protein kinase (Homo sapiens) (UniProt P04049); test: Inhibition of c-Raf at 3 uM
# [7] = test system: BT-474; test: cells; conditions: Homo sapiens
# Description: Antiproliferative activity against human BT474 cells overexpressing ErB2
# [8] = Plasma concentration in Sprague-Dawley rat at 10 mg/kg, po administered in 0.5% hydroxypropyl methylcellulose after 2 hrs; type: ADME, organism-based; design: dose 10 mg/kg, route oral
# [9] = Plasma concentration in Sprague-Dawley rat at 10 mg/kg, po administered in 0.5% hydroxypropyl methylcellulose after 0.5 hrs; type: ADME, organism-based; design: dose 10 mg/kg, route oral
# [10] = test system: HeLa; test: Antiproliferative activity against human HeLa cells; type: functional, cell-based
# [11] = test system: SK-BR-3; test: Antiproliferative activity against human SKBR3 cells overexpressing ErB2; type: functional, cell-based
# [12] = Plasma concentration in Sprague-Dawley rat at 10 mg/kg, po administered in 0.5% hydroxypropyl methylcellulose after 1 hr; type: ADME, organism-based; design: dose 10 mg/kg, route oral
# [13] = Plasma concentration in Sprague-Dawley rat at 10 mg/kg, po administered in 10% solutol in D5W after 0.5 hrs; type: ADME, organism-based; design: dose 10 mg/kg, route oral
# [14] = Plasma concentration in Sprague-Dawley rat at 10 mg/kg, po administered in 10% solutol in D5W after 2 hrs; type: ADME, organism-based; design: dose 10 mg/kg, route oral
# [15] = Plasma concentration in Sprague-Dawley rat at 10 mg/kg, po administered in 10% solutol in D5W after 1 hr; type: ADME, organism-based; design: dose 10 mg/kg, route oral
# [16] = Plasma concentration in Sprague-Dawley rat at 10 mg/kg, po administered in 10% solutol in D5W after 4 hrs; type: ADME, organism-based; design: dose 10 mg/kg, route oral
# Sequence of Epidermal growth factor receptor (P00533 whole entry): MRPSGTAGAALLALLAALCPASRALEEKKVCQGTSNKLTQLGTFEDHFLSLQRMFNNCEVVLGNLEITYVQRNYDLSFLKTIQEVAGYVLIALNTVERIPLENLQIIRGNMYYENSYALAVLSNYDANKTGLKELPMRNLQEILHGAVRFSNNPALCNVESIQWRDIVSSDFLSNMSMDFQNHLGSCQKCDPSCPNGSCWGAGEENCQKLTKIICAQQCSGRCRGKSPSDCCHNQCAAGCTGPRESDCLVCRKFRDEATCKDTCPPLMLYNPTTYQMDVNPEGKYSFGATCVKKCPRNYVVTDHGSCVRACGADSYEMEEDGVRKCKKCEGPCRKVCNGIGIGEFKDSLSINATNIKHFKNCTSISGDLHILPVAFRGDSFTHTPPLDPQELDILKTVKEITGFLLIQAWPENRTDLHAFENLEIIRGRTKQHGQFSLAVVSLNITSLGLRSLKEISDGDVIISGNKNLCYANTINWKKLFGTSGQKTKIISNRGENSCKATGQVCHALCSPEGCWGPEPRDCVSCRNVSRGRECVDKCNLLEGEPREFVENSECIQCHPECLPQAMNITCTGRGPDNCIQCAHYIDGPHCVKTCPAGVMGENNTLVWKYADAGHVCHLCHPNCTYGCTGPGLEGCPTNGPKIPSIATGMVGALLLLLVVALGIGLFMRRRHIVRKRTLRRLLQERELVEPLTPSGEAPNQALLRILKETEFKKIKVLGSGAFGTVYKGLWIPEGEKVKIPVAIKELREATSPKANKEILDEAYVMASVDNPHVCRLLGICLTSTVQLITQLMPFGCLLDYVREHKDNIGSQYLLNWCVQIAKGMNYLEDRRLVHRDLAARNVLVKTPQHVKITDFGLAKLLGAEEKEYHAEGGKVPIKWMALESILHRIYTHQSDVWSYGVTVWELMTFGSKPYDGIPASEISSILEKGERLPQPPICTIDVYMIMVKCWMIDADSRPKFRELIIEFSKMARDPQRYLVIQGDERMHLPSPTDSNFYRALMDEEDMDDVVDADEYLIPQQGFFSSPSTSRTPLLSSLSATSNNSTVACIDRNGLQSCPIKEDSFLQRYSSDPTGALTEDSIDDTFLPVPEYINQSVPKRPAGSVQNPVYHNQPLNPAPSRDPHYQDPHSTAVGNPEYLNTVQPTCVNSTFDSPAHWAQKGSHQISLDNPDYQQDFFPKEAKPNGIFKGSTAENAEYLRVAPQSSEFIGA
# T1 sequence (P04626 whole entry): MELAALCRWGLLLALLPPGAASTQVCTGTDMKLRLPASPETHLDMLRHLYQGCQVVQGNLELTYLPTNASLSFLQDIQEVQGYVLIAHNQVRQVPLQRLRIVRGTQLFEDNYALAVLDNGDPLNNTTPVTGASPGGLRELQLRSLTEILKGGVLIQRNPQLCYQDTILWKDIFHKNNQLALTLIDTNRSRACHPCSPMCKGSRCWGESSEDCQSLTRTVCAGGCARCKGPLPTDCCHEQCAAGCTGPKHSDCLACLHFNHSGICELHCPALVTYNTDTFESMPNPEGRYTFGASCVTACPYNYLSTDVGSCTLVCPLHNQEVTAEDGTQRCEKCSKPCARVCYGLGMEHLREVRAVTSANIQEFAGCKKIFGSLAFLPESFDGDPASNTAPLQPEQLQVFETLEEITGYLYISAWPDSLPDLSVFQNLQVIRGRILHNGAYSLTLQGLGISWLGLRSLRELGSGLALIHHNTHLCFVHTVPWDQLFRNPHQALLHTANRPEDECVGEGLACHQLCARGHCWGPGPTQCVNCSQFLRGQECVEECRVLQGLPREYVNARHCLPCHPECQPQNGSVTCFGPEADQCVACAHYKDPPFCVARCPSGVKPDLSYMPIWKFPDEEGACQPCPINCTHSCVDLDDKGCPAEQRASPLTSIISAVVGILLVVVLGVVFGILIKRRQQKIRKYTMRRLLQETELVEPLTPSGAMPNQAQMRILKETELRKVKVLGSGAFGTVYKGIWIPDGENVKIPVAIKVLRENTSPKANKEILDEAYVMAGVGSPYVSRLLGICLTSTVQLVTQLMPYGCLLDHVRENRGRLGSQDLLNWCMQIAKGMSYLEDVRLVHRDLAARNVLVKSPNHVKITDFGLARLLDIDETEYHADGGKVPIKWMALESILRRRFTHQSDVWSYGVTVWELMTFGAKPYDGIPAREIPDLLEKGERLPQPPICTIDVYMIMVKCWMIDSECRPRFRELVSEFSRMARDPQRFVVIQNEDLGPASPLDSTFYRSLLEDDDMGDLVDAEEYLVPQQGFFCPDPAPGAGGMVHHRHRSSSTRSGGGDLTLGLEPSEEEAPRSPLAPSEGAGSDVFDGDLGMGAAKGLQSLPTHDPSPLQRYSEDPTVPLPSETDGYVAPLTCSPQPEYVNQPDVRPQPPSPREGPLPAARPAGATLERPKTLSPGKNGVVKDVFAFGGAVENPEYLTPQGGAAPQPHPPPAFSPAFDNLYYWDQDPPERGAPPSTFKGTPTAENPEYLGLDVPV
# Sequence of Tyrosine-protein kinase Lck (Homo sapiens) (P06239 2-509 limits assumed): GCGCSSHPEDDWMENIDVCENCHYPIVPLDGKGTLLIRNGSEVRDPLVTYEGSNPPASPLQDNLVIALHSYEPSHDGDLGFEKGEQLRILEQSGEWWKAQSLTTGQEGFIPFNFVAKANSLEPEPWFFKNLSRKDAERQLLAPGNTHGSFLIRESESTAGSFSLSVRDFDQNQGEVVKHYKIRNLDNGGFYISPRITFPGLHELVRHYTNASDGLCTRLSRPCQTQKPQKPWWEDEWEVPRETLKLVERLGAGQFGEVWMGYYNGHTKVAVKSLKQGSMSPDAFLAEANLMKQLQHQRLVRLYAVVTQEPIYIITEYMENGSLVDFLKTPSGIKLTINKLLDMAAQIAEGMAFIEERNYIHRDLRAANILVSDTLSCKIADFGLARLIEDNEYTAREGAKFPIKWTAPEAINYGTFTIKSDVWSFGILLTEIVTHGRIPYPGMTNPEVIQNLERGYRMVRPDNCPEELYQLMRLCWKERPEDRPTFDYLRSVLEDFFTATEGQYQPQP
# Sequence of RAF proto-oncogene serine/threonine-protein kinase (Homo sapiens) (P04049 whole entry): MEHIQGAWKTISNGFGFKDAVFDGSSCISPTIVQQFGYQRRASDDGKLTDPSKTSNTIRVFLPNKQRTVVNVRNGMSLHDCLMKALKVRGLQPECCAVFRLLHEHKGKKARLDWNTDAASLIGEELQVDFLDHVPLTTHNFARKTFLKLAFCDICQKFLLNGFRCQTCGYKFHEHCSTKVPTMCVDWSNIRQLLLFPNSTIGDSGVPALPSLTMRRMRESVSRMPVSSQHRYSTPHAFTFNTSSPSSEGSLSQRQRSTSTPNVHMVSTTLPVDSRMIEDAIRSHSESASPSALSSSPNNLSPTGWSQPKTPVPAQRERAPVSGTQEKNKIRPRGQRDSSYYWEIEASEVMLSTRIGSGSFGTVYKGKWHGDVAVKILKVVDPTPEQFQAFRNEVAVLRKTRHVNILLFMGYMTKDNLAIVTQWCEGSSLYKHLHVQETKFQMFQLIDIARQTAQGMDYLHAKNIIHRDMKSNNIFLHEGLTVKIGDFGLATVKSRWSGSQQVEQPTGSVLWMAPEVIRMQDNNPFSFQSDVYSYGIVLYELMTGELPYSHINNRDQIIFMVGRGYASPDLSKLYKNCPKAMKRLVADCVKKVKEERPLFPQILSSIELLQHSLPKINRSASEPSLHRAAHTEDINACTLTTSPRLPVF
Structure (SMILES),IC50 [1],IC50 [2],IC50 [3],inhibition [4],inhibition [6],IC50 [7],concentration at 2 h [8],concentration at 0.5 h [9],IC50 [10],IC50 [11],concentration at 1 h [12],concentration at 0.5 h [13],concentration at 2 h [14],concentration at 1 h [15],concentration at 4 h [16],IC50 [5]
CN/N=C/c1c(N)ncnc1Nc1ccc2c(cnn2Cc2cccc(F)c2)c1,84 nM,12 nM,361 nM,–,–,–,–,–,–,–,–,–,–,–,–,–
Nc1ncnc(Nc2ccc3c(cnn3Cc3cccc(F)c3)c2)c1/C=N/N1CCN(CCO)CC1,8 nM,9 nM,54 nM,–,–,14 nM,–,–,> 100000 nM,58 nM,–,–,–,–,–,58 nM
COc1ccc(/N=C/c2c(N)ncnc2Nc2ccc3c(cnn3Cc3cccc(F)c3)c2)cc1,118 nM,49 nM,1290 nM,–,–,–,–,–,–,–,–,–,–,–,–,–
Nc1ncnc(Nc2ccc3c(cnn3Cc3cccc(F)c3)c2)c1/C=N/NCC(F)(F)F,20 nM,52 nM,258 nM,–,–,–,–,–,–,–,–,–,–,–,–,–
CN(C)/N=C/c1c(N)ncnc1Nc1ccc2c(cnn2Cc2cccc(F)c2)c1,2 nM,8 nM,105 nM,–,–,63 nM,–,–,> 100000 nM,148 nM,–,10.1 ng/mL,13.2 ng/mL,6.3 ng/mL,4.6 ng/mL,131 nM

# Further lines, with some results ahead:
IC50 [1],IC50 [2],IC50 [3],inhibition [4],inhibition [6],IC50 [7],concentration at 2 h [8],concentration at 0.5 h [9],IC50 [10],IC50 [11],concentration at 1 h [12],concentration at 0.5 h [13],concentration at 2 h [14],concentration at 1 h [15],concentration at 4 h [16],Structure (SMILES),IC50 [5]
39 nM,26 nM,426 nM,–,–,–,–,–,–,–,–,–,–,–,–,COC[C@@H]1CCCN1/N=C/c1c(N)ncnc1Nc1ccc2c(cnn2Cc2cccc(F)c2)c1,–
72 nM,31 nM,–,–,–,–,–,–,–,–,–,–,–,–,–,COC[C@H]1CCCN1/N=C/c1c(N)ncnc1Nc1ccc2c(cnn2Cc2cccc(F)c2)c1,–
18 nM,–,148 nM,60%,50%,49 nM,32.4 ng/mL,23.4 ng/mL,> 10000 nM,691 nM,12.6 ng/mL,–,–,–,–,Nc1ncnc(Nc2ccc3c(cnn3Cc3cccc(F)c3)c2)c1/C=N/N1CCCCC1,365 nM
7 nM,16 nM,83 nM,71%,47%,31 nM,1.5 ng/mL,26.1 ng/mL,> 100000 nM,122 nM,21.6 ng/mL,–,–,–,–,Nc1ncnc(Nc2ccc3c(cnn3Cc3cccc(F)c3)c2)c1/C=N/N1CCOCC1,91 nM
8 nM,16 nM,509 nM,–,–,–,–,–,–,–,–,–,–,–,–,CN1CCN(/N=C/c2c(N)ncnc2Nc2ccc3c(cnn3Cc3cccc(F)c3)c2)CC1,–
